Data taken from the NIST ThermoML archive (doi:10.1016/j.jct.2016.10.023).

Assay: xn = mol fraction of the nth substance listed
Conditions: Constant-volume piezometry

CCCCC [pentane] + CCCO
Conditions	mass density [kg/m3]
503.15 K, 5980 kPa, Fluid (supercritical or subcritical phases), x1 = 0.8	288.67
503.15 K, 6051 kPa, Fluid (supercritical or subcritical phases), x1 = 0.9	301.99
503.15 K, 6149 kPa, Fluid (supercritical or subcritical phases), x1 = 0.8	299.5
503.15 K, 6295 kPa, Fluid (supercritical or subcritical phases), x1 = 0.9	312.64
503.15 K, 6413 kPa, Liquid, x1 = 0.2	470.91
503.15 K, 6490 kPa, Fluid (supercritical or subcritical phases), x1 = 0.5	373.27
503.15 K, 6551 kPa, Fluid (supercritical or subcritical phases), x1 = 0.8	315.69
503.15 K, 6924 kPa, Fluid (supercritical or subcritical phases), x1 = 0.9	334.38
503.15 K, 7052 kPa, Fluid (supercritical or subcritical phases), x1 = 0.8	334.2
503.15 K, 7423 kPa, Fluid (supercritical or subcritical phases), x1 = 0.8	345.74
503.15 K, 7481 kPa, Fluid (supercritical or subcritical phases), x1 = 0.5	398.56
503.15 K, 7825 kPa, Fluid (supercritical or subcritical phases), x1 = 0.9	354.5
503.15 K, 8266 kPa, Fluid (supercritical or subcritical phases), x1 = 0.8	362.32
503.15 K, 8559 kPa, Fluid (supercritical or subcritical phases), x1 = 0.5	417.68
503.15 K, 10489 kPa, Fluid (supercritical or subcritical phases), x1 = 0.5	441.45
503.15 K, 10609 kPa, Liquid, x1 = 0.2	510.19
503.15 K, 11537 kPa, Fluid (supercritical or subcritical phases), x1 = 0.5	451.78
503.15 K, 12022 kPa, Fluid (supercritical or subcritical phases), x1 = 0.9	407.75
503.15 K, 12689 kPa, Fluid (supercritical or subcritical phases), x1 = 0.8	418.68
503.15 K, 14223 kPa, Fluid (supercritical or subcritical phases), x1 = 0.5	468.71
503.15 K, 18302 kPa, Liquid, x1 = 0.2	547.72
503.15 K, 21559 kPa, Fluid (supercritical or subcritical phases), x1 = 0.8	467.26
503.15 K, 26707 kPa, Fluid (supercritical or subcritical phases), x1 = 0.5	519.99
503.15 K, 30356 kPa, Fluid (supercritical or subcritical phases), x1 = 0.8	496.72
503.15 K, 30587 kPa, Liquid, x1 = 0.2	582.08
503.15 K, 37782 kPa, Liquid, x1 = 0.2	595.68
503.15 K, 41722 kPa, Fluid (supercritical or subcritical phases), x1 = 0.8	521.26
504.15 K, 4315 kPa, Liquid, x1 = 0.2	419.14
508.15 K, 4020 kPa, Gas, x1 = 0.2	114.44
508.15 K, 4961 kPa, Liquid, x1 = 0.2	419.05
510.15 K, 4548 kPa, Liquid, x1 = 0.2	383.7
511.15 K, 4773 kPa, Liquid, x1 = 0.2	391.53
513.15 K, 933 kPa, Gas, x1 = 0.5	15.53
513.15 K, 1283 kPa, Gas, x1 = 0.8	22.54
513.15 K, 1508 kPa, Gas, x1 = 0.2	24.94
513.15 K, 1686 kPa, Gas, x1 = 0.5	30
513.15 K, 1923 kPa, Gas, x1 = 0.8	36.71
513.15 K, 2226 kPa, Gas, x1 = 0.5	40.51
513.15 K, 2615 kPa, Gas, x1 = 0.5	51.12
513.15 K, 2796 kPa, Gas, x1 = 0.8	58.44
513.15 K, 2974 kPa, Gas, x1 = 0.2	53.03
513.15 K, 3284 kPa, Gas, x1 = 0.5	67.55
513.15 K, 3295 kPa, Gas, x1 = 0.8	73.83
513.15 K, 3462 kPa, Gas, x1 = 0.5	72.63
513.15 K, 3488 kPa, Gas, x1 = 0.9	83.42
513.15 K, 3816 kPa, Gas, x1 = 0.2	91.46
513.15 K, 3844 kPa, Gas, x1 = 0.5	88.95
513.15 K, 4033 kPa, Gas, x1 = 0.5	95.89
513.15 K, 4156 kPa, Fluid (supercritical or subcritical phases), x1 = 0.8	106.45
513.15 K, 4165 kPa, Gas, x1 = 0.2	114.41
513.15 K, 4349 kPa, Fluid (supercritical or subcritical phases), x1 = 0.9	123.41
513.15 K, 4538 kPa, Fluid (supercritical or subcritical phases), x1 = 0.9	134.18
513.15 K, 4567 kPa, Fluid (supercritical or subcritical phases), x1 = 0.5	121.95
513.15 K, 4703 kPa, Liquid, x1 = 0.2	350.76
513.15 K, 4837 kPa, Fluid (supercritical or subcritical phases), x1 = 0.5	144.18
513.15 K, 4850 kPa, Fluid (supercritical or subcritical phases), x1 = 0.8	140.37
513.15 K, 4865 kPa, Liquid, x1 = 0.2	378.83
513.15 K, 4965 kPa, Fluid (supercritical or subcritical phases), x1 = 0.9	164.03
513.15 K, 4968 kPa, Fluid (supercritical or subcritical phases), x1 = 0.5	154.56
513.15 K, 4968 kPa, Liquid, x1 = 0.2	383.64
513.15 K, 5032 kPa, Fluid (supercritical or subcritical phases), x1 = 0.8	156.12
513.15 K, 5068 kPa, Fluid (supercritical or subcritical phases), x1 = 0.2	391.49
513.15 K, 5068 kPa, Liquid, x1 = 0.2	391.49
513.15 K, 5086 kPa, Fluid (supercritical or subcritical phases), x1 = 0.5	165.22
513.15 K, 5197 kPa, Fluid (supercritical or subcritical phases), x1 = 0.8	169.87
513.15 K, 5255 kPa, Fluid (supercritical or subcritical phases), x1 = 0.5	182.94
513.15 K, 5265 kPa, Fluid (supercritical or subcritical phases), x1 = 0.8	176.11
513.15 K, 5295 kPa, Fluid (supercritical or subcritical phases), x1 = 0.9	189.54
513.15 K, 5344 kPa, Fluid (supercritical or subcritical phases), x1 = 0.8	180.91

Liquid, x1 = 0.2
Conditions	mass density [kg/m3]
508.65 K	391.58
509.65 K	383.71
510.35 K	378.89
512.85 K	350.77
